Data: the supplement of paper PMC11451515

Key:
Details in all cases: 48 h
SEM cells [1] = assay: cell viability relative to DMSO control; higher = less cytotoxic
Method in brief: (§1)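 NOMO1 or SEM (500 cells/well) or P12-Ichikawa (1000 cells/well) leukemia cells were adapted for at least four passages in each medium. They were seeded in 1536-well plates (5 μl) and pin-dosed with library compounds in DMSO over an 11-point threefold series, 47 μM to 0.79 nM. CellTiter-Glo One luminescence was read after 48 h at 37°C. Viability is the per-plate percentage relative to DMSO wells, with cell-free wells as background.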

P12-Ichikawa [2] = assay: as above
Method in brief: as §1

NOMO1 [3] = assay: as above
Method in brief: as §1

SEM cells [4] = assay: AUC of viability dose-response curve (% viability x log10 dose units); higher = less sensitive
Method in brief: (§2)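 Leukemia cells adapted to each medium were seeded in 1536-well plates (500 or 1000 cells/well). They were dosed with library compounds in DMSO at 11 threefold doses, 47 μM to 0.79 nM, for 48 h at 37°C. CellTiter-Glo One luminescence was normalised per plate to DMSO and cell-free wells. Area under the curve was integrated by trapezoidal rule over log10 doses on a four-parameter log-logistic fit; curves exceeding full viability were scaled and curves failing quality control removed.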

P12-Ichikawa [5] = assay: as above
Method in brief: as §2

NOMO1 [6] = assay: as above
Method in brief: as §2

O=C(O)c1ccc2c(c1)nc(Nc1cccc(Cl)c1)c1ccncc12
cell viability [%]
Details	NOMO1 [3]	P12-Ichikawa [2]	SEM cells [1]
HPLM + 10% dialyzed FBS, 0.000781 µM	114	106	103
HPLM + 10% dialyzed FBS, 0.00234 µM	109	112	114
HPLM + 10% dialyzed FBS, 0.00702 µM	131	104	106
HPLM + 10% dialyzed FBS, 0.0211 µM	115	104	105
HPLM + 10% dialyzed FBS, 0.0632 µM	114	108	110
HPLM + 10% dialyzed FBS, 0.19 µM	119	109	101
HPLM + 10% dialyzed FBS, 0.569 µM	125	104	117
HPLM + 10% dialyzed FBS, 1.71 µM	114	104	102
HPLM + 10% dialyzed FBS, 5.12 µM	73.8	94.8	77.6
HPLM + 10% dialyzed FBS, 15.4 µM	49.2	71.8	35.9
HPLM + 10% dialyzed FBS, 46.1 µM	78.1	83.4	48.8
RPMI 5 mM glucose + 10% FBS, 0.000781 µM	93	112	107
RPMI 5 mM glucose + 10% FBS, 0.00234 µM	93.5	111	108
RPMI 5 mM glucose + 10% FBS, 0.00702 µM	103	108	98.5
RPMI 5 mM glucose + 10% FBS, 0.0211 µM	103	98.4	103
RPMI 5 mM glucose + 10% FBS, 0.0632 µM	94.6	108	111
RPMI 5 mM glucose + 10% FBS, 0.19 µM	103	108	127
RPMI 5 mM glucose + 10% FBS, 0.569 µM	92.7	105	104
RPMI 5 mM glucose + 10% FBS, 1.71 µM	90.8	100	98.1
RPMI 5 mM glucose + 10% FBS, 5.12 µM	83.7	84.4	70.7
RPMI 5 mM glucose + 10% FBS, 15.4 µM	65.6	58.9	32.1
RPMI 5 mM glucose + 10% FBS, 46.1 µM	79.2	70.2	46
RPMI 5 mM glucose + 10% dialyzed FBS, 0.000781 µM	100	99.4	103
RPMI 5 mM glucose + 10% dialyzed FBS, 0.00234 µM	105	94.2	103
RPMI 5 mM glucose + 10% dialyzed FBS, 0.00702 µM	101	93.8	105
RPMI 5 mM glucose + 10% dialyzed FBS, 0.0211 µM	101	97.4	99.5
RPMI 5 mM glucose + 10% dialyzed FBS, 0.0632 µM	107	100	107
RPMI 5 mM glucose + 10% dialyzed FBS, 0.19 µM	99.1	95.9	125
RPMI 5 mM glucose + 10% dialyzed FBS, 0.569 µM	91.9	94.5	114
RPMI 5 mM glucose + 10% dialyzed FBS, 1.71 µM	101	101	102
RPMI 5 mM glucose + 10% dialyzed FBS, 5.12 µM	81.5	77.8	62.2
RPMI 5 mM glucose + 10% dialyzed FBS, 15.4 µM	47.2	51.4	30.4
RPMI 5 mM glucose + 10% dialyzed FBS, 46.1 µM	77.5	73	38.5

AUC of viability dose-response curve
Details	NOMO1 [6]	P12-Ichikawa [5]	SEM cells [4]
HPLM + 10% dialyzed FBS	425	453	421
RPMI 5 mM glucose + 10% FBS	437	437	412
RPMI 5 mM glucose + 10% dialyzed FBS	441	429	406

Cc1cn(-c2cc(NC(=O)c3ccc(C)c(Nc4nccc(-c5cccnc5)n4)c3)cc(C(F)(F)F)c2)cn1
cell viability [%]
Details	NOMO1 [3]	P12-Ichikawa [2]	SEM cells [1]
HPLM + 10% dialyzed FBS, 0.000781 µM	100	102	83.5
HPLM + 10% dialyzed FBS, 0.00234 µM	122	101	92.7
HPLM + 10% dialyzed FBS, 0.00702 µM	123	108	97.1
HPLM + 10% dialyzed FBS, 0.0211 µM	135	109	107
HPLM + 10% dialyzed FBS, 0.0632 µM	130	110	107
HPLM + 10% dialyzed FBS, 0.19 µM	117	107	109
HPLM + 10% dialyzed FBS, 0.569 µM	103	106	95.2
HPLM + 10% dialyzed FBS, 1.71 µM	88.8	12	52.4
HPLM + 10% dialyzed FBS, 5.12 µM	95.3	13.1	40.9
HPLM + 10% dialyzed FBS, 15.4 µM	95.2	9.96	37.3
HPLM + 10% dialyzed FBS, 46.1 µM	114	10.8	35.4
RPMI 5 mM glucose + 10% FBS, 0.000781 µM	99.7	112	106
RPMI 5 mM glucose + 10% FBS, 0.00234 µM	111	111	120
RPMI 5 mM glucose + 10% FBS, 0.00702 µM	115	114	108
RPMI 5 mM glucose + 10% FBS, 0.0211 µM	127	117	124
RPMI 5 mM glucose + 10% FBS, 0.0632 µM	113	113	111
RPMI 5 mM glucose + 10% FBS, 0.19 µM	131	112	125
RPMI 5 mM glucose + 10% FBS, 0.569 µM	117	110	110
RPMI 5 mM glucose + 10% FBS, 1.71 µM	66.5	43.6	31.4
RPMI 5 mM glucose + 10% FBS, 5.12 µM	61.3	11.4	31.6
RPMI 5 mM glucose + 10% FBS, 15.4 µM	74.2	12.1	21.4
RPMI 5 mM glucose + 10% FBS, 46.1 µM	68.4	11	17.5
RPMI 5 mM glucose + 10% dialyzed FBS, 0.000781 µM	102	103	111
RPMI 5 mM glucose + 10% dialyzed FBS, 0.00234 µM	109	113	106
RPMI 5 mM glucose + 10% dialyzed FBS, 0.00702 µM	107	114	104
RPMI 5 mM glucose + 10% dialyzed FBS, 0.0211 µM	106	112	110
RPMI 5 mM glucose + 10% dialyzed FBS, 0.0632 µM	114	115	111
RPMI 5 mM glucose + 10% dialyzed FBS, 0.19 µM	114	113	98.9
RPMI 5 mM glucose + 10% dialyzed FBS, 0.569 µM	111	114	102
RPMI 5 mM glucose + 10% dialyzed FBS, 1.71 µM	86.8	23.9	26.9
RPMI 5 mM glucose + 10% dialyzed FBS, 5.12 µM	67.2	24.5	33.6
RPMI 5 mM glucose + 10% dialyzed FBS, 15.4 µM	66.3	26.7	21.5
RPMI 5 mM glucose + 10% dialyzed FBS, 46.1 µM	62.9	22.7	17.2

AUC of viability dose-response curve
Details	NOMO1 [6]	P12-Ichikawa [5]	SEM cells [4]
HPLM + 10% dialyzed FBS	436	328	377
RPMI 5 mM glucose + 10% FBS	407	340	345
RPMI 5 mM glucose + 10% dialyzed FBS	419	346	347

C[C@]1(c2nc3c(C(N)=O)cccc3[nH]2)CCCN1
cell viability [%]
Details	NOMO1 [3]	P12-Ichikawa [2]	SEM cells [1]
HPLM + 10% dialyzed FBS, 0.000781 µM	70.8	78.7	63.8
HPLM + 10% dialyzed FBS, 0.00234 µM	69.6	83.9	74.1
HPLM + 10% dialyzed FBS, 0.00702 µM	84	79.3	75.9
HPLM + 10% dialyzed FBS, 0.0211 µM	82.2	88.8	89.1
HPLM + 10% dialyzed FBS, 0.0632 µM	80.8	82.2	78.3
HPLM + 10% dialyzed FBS, 0.19 µM	88.9	87.2	81.3
HPLM + 10% dialyzed FBS, 0.569 µM	84.2	88.4	74.5
HPLM + 10% dialyzed FBS, 1.71 µM	74.6	83.2	90.6
HPLM + 10% dialyzed FBS, 5.12 µM	67.1	81.3	87.2
HPLM + 10% dialyzed FBS, 15.4 µM	93	89.5	80.3
HPLM + 10% dialyzed FBS, 46.1 µM	31.4	72.4	63
RPMI 5 mM glucose + 10% FBS, 0.000781 µM	65.2	70.9	81
RPMI 5 mM glucose + 10% FBS, 0.00234 µM	80.4	78.2	62.7
RPMI 5 mM glucose + 10% FBS, 0.00702 µM	72.5	74.9	68
RPMI 5 mM glucose + 10% FBS, 0.0211 µM	79.5	82.6	88.8
RPMI 5 mM glucose + 10% FBS, 0.0632 µM	76.3	82.9	83
RPMI 5 mM glucose + 10% FBS, 0.19 µM	76.3	72.9	87.4
RPMI 5 mM glucose + 10% FBS, 0.569 µM	85.6	77.7	89.7
RPMI 5 mM glucose + 10% FBS, 1.71 µM	72	72.4	85
RPMI 5 mM glucose + 10% FBS, 5.12 µM	68.9	83.3	98
RPMI 5 mM glucose + 10% FBS, 15.4 µM	81.3	80.4	98.1
RPMI 5 mM glucose + 10% FBS, 46.1 µM	23	5.38	59.8
RPMI 5 mM glucose + 10% dialyzed FBS, 0.000781 µM	62.8	78.1	68.5
RPMI 5 mM glucose + 10% dialyzed FBS, 0.00234 µM	77	74.3	63.7
RPMI 5 mM glucose + 10% dialyzed FBS, 0.00702 µM	76.8	74.3	64.9
RPMI 5 mM glucose + 10% dialyzed FBS, 0.0211 µM	82.3	81.4	87.2
RPMI 5 mM glucose + 10% dialyzed FBS, 0.0632 µM	87.5	83.5	71.9
RPMI 5 mM glucose + 10% dialyzed FBS, 0.19 µM	93.7	76.9	79
RPMI 5 mM glucose + 10% dialyzed FBS, 0.569 µM	89.6	79	84.5
RPMI 5 mM glucose + 10% dialyzed FBS, 1.71 µM	90.6	81.6	75.6
RPMI 5 mM glucose + 10% dialyzed FBS, 5.12 µM	73.1	72.8	76.7
RPMI 5 mM glucose + 10% dialyzed FBS, 15.4 µM	77.4	82.1	76.7
RPMI 5 mM glucose + 10% dialyzed FBS, 46.1 µM	26.1	2.96	51.5

AUC of viability dose-response curve
Details	NOMO1 [6]	P12-Ichikawa [5]	SEM cells [4]
HPLM + 10% dialyzed FBS	368	399	372
RPMI 5 mM glucose + 10% FBS	349	353	393
RPMI 5 mM glucose + 10% dialyzed FBS	374	356	352
